The text below walks through data of paper PMC11500008, “Novel quinazolin-4-one based derivatives bearing 1,2,3-triazole and glycoside moieties as potential cytotoxic agents through dual EGFR and VEGFR-2 inhibitory activity” (Scientific Reports, 2024).

Where “and” joins values, the source holds several entries; their conditions need not be identical. Equal values may be shown once. Read-outs that look alike come from different tables or passages of the source. Bounds are passed on as bounds.

The term IC50 denotes the concentration that gives 50% inhibition. In general, melting point refers to the temperature of the solid-liquid transition.

The test system of data set [1] is HepG-2 cell line. Description: MTT cytotoxicity assay, HepG-2. It is filed as cell-based. The settings on record: Homo sapiens, HepG2; HepG-2 liver cancer cells; 48 h incubation; mean of three values; read-out: IC50 (mean±SD) HepG-2. The source says:
(§1) The recently incorporated quinazolinone-based targets 1–4, 6–13 underwent evaluation for their cytotoxic effects with in vitro employing MTT technique, according to the procedure that has been published[48]–[50], utilizing human fibroblast-derived BJ-1 normal cell line, and human cancer liver HepG-2, breast MCF-7, and colon HCT-116 cell lines. These cell lines were purchased from Karolinska Center, Department of Oncology and Pathology, Karolinska Institute and Hospital, Stockholm, Sweden, There were further details in the supplemental file.
(§2) The cell lines were obtained from Karolinska Center, Department of Oncology and Pathology, Karolinska Institute and Hospital, Stockholm, Sweden as follows: human liver HepG-2, breast MCF-7, and colorectal HCT-116 cancer cell lines and human fibroblast-derived BJ-1 normal cell line. Exponentially, cells were placed in 10^4 cells/ well for 24 h, and then add fresh medium which containing different concentration of the tested sample. Serial two-fold dilution of the tested sample were added using a multichannel pipette. Moreover, all cells were cultivated at 37 °C, 5% CO2 and 95% humidity. Also, incubation of control cells occurred at 37 °C. However, after incubation for 24 h different concentrations of sample (25, 12.5, 6.25 and 3.125 µM) were added and continued the incubation for 48 h, then, add the crystal violet solution 1% to each well for 0.5 h to examine viable cells. Rinse the wells using water until no stain. After that, add 30% glacial acetic acid to all wells with shaking plates on Microplate reader (TECAN, Inc.) to measure the absorbance, using a test wavelength of 490 nm. Besides, compare the treated samples with the control cell. The cytotoxicity was estimated by IC50 in (μM), the concentration that inhibits 50% of growth of cancer cell.
(Formazan colour is commonly taken as a measure of viable cells.)

Data set [2] concerns MCF-7 cell line. Description: MTT cytotoxicity assay, MCF-7. Type of data set: cell-based. The following applies: Homo sapiens, MCF7; MCF-7 breast cancer cells; 48 h incubation; mean of three values; read-out: IC50 (mean±SD) MCF-7.
Source text: as §1, §2

The test system of data set [3] is HCT-116 cell line. Description: MTT cytotoxicity assay, HCT-116. Type of data set: cell-based. The settings on record: Homo sapiens; HCT-116 colorectal cancer cells; 48 h incubation; mean of three values; read-out: IC50 (mean±SD) HCT-116.
Source text: as §1, §2

The target of data set [4] is EGFR (Homo sapiens, UniProt P00533). Description: In vitro EGFR inhibition assay (Kinase-Glo luminescence). A general note: Kinase-Glo reads ATP consumption through a luciferase reaction.
Sequence of EGFR (P00533 25-1210): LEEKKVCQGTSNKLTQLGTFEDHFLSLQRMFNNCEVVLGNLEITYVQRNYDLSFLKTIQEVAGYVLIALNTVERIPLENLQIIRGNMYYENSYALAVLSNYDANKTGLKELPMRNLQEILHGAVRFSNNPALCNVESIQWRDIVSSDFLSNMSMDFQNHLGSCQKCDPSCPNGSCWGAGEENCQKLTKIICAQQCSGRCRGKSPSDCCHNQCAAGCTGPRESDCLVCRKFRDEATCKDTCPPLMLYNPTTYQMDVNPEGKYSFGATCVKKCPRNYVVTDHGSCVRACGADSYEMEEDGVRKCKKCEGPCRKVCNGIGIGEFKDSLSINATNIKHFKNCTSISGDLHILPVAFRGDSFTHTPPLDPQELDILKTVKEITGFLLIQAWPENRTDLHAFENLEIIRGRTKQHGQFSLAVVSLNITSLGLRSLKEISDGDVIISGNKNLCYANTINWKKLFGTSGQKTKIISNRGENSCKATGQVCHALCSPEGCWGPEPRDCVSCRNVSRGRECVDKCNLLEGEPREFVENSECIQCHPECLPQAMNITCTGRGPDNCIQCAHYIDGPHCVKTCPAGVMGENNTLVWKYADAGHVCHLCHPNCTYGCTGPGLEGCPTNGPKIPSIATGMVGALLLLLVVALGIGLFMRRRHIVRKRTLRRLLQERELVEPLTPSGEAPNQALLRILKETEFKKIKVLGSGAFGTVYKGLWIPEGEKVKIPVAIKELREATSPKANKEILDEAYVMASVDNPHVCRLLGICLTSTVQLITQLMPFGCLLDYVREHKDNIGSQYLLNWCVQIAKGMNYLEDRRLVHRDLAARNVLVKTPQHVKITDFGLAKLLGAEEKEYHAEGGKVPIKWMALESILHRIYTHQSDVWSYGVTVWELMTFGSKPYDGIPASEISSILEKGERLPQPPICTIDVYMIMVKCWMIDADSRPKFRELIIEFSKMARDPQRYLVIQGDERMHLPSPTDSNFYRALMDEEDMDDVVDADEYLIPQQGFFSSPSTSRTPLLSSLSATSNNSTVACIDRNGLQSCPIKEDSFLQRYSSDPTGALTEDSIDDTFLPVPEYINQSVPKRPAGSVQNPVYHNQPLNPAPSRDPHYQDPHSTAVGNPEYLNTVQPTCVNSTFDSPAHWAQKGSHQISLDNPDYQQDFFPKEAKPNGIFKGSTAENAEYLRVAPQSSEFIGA
In data set [5] the target is VEGFR-2 (Homo sapiens, UniProt P35968). Description: In vitro VEGFR-2 inhibition assay (ELISA). The following applies: read-out: IC50 (mean ± SD) VEGFR-2; average of three values.
Sequence of VEGFR-2 (P35968 20-1356): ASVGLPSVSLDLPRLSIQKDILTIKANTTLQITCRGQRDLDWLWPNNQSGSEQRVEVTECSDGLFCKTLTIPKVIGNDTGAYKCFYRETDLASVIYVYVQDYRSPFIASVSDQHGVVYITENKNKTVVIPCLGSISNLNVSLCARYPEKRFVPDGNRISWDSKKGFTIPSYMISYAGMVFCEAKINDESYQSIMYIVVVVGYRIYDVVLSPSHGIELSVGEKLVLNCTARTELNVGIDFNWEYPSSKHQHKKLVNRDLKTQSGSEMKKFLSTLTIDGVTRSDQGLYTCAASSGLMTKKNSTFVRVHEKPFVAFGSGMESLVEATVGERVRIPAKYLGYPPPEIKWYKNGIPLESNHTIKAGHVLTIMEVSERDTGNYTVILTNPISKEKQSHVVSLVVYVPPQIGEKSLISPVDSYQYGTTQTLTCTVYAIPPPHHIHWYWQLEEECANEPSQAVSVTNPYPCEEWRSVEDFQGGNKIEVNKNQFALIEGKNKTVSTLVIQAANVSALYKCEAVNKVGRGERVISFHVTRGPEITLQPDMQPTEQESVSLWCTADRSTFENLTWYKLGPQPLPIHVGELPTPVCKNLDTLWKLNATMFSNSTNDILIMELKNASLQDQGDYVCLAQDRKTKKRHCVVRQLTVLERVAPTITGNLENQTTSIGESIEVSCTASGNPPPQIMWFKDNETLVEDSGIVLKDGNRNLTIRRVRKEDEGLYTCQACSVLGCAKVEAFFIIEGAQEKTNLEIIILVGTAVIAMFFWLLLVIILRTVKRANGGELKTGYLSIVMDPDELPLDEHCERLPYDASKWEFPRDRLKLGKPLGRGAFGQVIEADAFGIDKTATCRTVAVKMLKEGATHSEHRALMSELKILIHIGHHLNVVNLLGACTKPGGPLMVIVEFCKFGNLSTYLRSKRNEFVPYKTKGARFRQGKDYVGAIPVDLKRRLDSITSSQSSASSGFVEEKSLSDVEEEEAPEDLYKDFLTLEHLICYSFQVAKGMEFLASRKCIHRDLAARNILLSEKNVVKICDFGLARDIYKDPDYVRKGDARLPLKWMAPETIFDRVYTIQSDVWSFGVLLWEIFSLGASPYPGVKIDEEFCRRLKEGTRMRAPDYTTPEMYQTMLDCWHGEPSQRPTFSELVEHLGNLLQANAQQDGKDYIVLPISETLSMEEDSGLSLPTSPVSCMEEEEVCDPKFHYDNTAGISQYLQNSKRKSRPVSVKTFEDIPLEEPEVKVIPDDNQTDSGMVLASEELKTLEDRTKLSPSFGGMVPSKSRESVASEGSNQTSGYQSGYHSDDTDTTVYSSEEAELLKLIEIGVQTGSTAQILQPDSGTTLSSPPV
Data set [6] relates to BJ-1 normal cell line. Description: MTT cytotoxicity assay, normal BJ-1 fibroblasts (safety profile). It is filed as cell-based. The following applies: Homo sapiens; BJ-1 normal fibroblast-derived cells; 48 h incubation; mean of three values; read-out: IC50 (mean±SD) BJ-1. The protocol:
[…]. The safety profiles of all derivatives were assessed through cytotoxic evaluation using human fibroblast-derived BJ-1 normal cell lines. […].
as §1, §2

In data set [7] the test system is HCT-116 cells. Description: Cell cycle analysis by flow cytometry (PI). It is filed as cell-based, human. How it is done:
(§3) The most powerful cytotoxic derivative, quinazolinone-1,2,3-triazole glycoside 13, underwent 24-hour treatment at a dose of 5.40 µM to find out if it caused cell death by the apoptotic pathway in HCT-116 cells. Using annexin-V labeling, flow cytometry was employed to further analyze the cells (Figs. 4, 5 and 6).
(§4) The examination of apoptosis and the interpretation of the cell cycle were described[37] utilizing flow cytometry. HCT-116 cells were treated with quinacolinone-1,2,3-triazole glycoside 13 for a full day, and after that, the cells were cultured at 37 °C. There were more details added to supporting documentation .
(§5) Cell cycle analysis and apoptosis study were carried out using flow cytometry. HCT-116 cells were seeded at 8×10^4 and incubated at 37°C in 5% CO2 overnight. After treatment with the tested compound 10 for 24 h, cell pellets were collected and centrifuged (300 g, 5 min). For cell cycle analysis cell pellets were fixed with 70% ethanol on ice for 15 min and collected again. The pellets were incubated with propidium iodide (PI) staining solution at room temperature for 1 h and analyzed by a Gallios flow cytometer (Beckman Coulter, Brea, CA, USA). Apoptosis detection was carried out by FITC AnnexinV/PI commercial kit (Becton Dickenson, Franklin Lakes, NJ, USA) following the manufacturer protocol. The samples were analyzed by fluorescence-activated cell sorting (FACS) with a Gallios flow cytometer (Beckman Coulter, Brea, CA, USA) within 1 h after staining. Data were analyzed using Kaluza v 1.2 (Beckman Coulter).
For orientation: In flow cytometry, cells or beads pass a laser one at a time.

For data set [8], the system named is Bcl-2. Description: Bcl-2 level in HCT-116 cells. It is filed as cell-based, human. From the text: (§6) The methods previously described for the appealing quinazolinone-1,2,3-triazole glycoside 13 was used to clearly show the levels of p53, Bax, Bcl-2, and in HCT-116 cells.
(§7) The levels of the apoptotic marker Bax and anti-apoptotic marker Bcl-2 were estimated using BIO RAD iScript TM One-Step RT-PCR kit with SYBR® Green. The procedure of the used kit was done according to the manufacturer’s instructions.

For data set [9], the system named is HCT-116 cells. Description: Apoptosis analysis by annexin V-FITC/PI flow cytometry. The following applies: 5.40 µM, 24 h. It is filed as cell-based, human. How it is done: as §3, §4, §5
Data set [10] concerns Bax. Description: Bax level in HCT-116 cells. It is filed as cell-based, human.
Source text: as §6, §7

The subject of data set [11] is p53. Description: p53 level in HCT-116 cells (ELISA). Type of data set: cell-based, human. The protocol:
as §6
Human p53 present in HCT-116 cells was determined; using Human p53 ELISA-Kit (CS0070 Sigma) read using spectrophotometer at 450 nm against untreated control cells (negative control) applying the standard protocols of the manufacturers. The samples or standard having human p53 bind to antibodies adsorbed to the microwells. Addition of biotin-conjugated was followed by incubation and addition of dispense of unbound biotin-conjugated streptavidin HRP. Then, the reaction was terminated by adding acid, and the absorbance was measured at 450 nm.

For data set [12], the system named is MCF-7 cell line. Set-up: method as in PMID 37453330. The settings on record: cellular activity; read-out: IC50 against MCF-7 cell line; cited from earlier work.

Compound `CC(=O)OC[C@H]1O[C@@H](n2cc(CSc3nc4ccccc4c(=O)n3-c3ccccc3)nn2)[C@H](OC(C)=O)[C@@H](OC(C)=O)[C@H]1OC(C)=O` [Compound 6, 2-(((1-[2,3,4,6-Tetra-O-acetyl-β-D-galactopyranosyl]-1 H-1,2,3-triazol-4-yl)methyl)thio)-3-phenylquinazolin-4(3 H)-one] returned a melting point of 90 to 92 °C. The IC50 in data set [1] was 19.2 ± 2.1 µM. Besides, the IC50 in data set [2] is 13.4 ± 1.2 µM. In data set [3], the IC50 was 3.2 ± 0.1 µM. Half-maximal inhibition in data set [4] (IC50) was put at 18.63 ± 0.14 µM. Further, the half-inhibitory concentration (IC50) in data set [5] came out at 32.25 ± 0.25 µM. In data set [6], the IC50 was greater than 25 µM.
For the compound `CC(=O)O[C@@H]1[C@@H](OC(C)=O)[C@H](OC(C)=O)CO[C@H]1n1cc(CSc2nc3ccccc3c(=O)n2-c2ccccc2)nn1` [Compound 8, 2-(((1-[2,3,4-tri-O-acetyl-β-D-xylopyranosyl]-1 H-1,2,3-triazol-4-yl)methyl)thio)-3-phenylquinazolin-4(3 H)-one], the melting point lay within 210 to 212 °C. The IC50 in data set [1] worked out at 21.4 ± 3.1 µM. For the same compound, the IC50 in data set [2] came to 14 ± 1.2 µM. Moreover, the IC50 in data set [3] was less than 3.12 µM. The compound further gave an IC50 in [4] of 21.38 ± 0.15 µM. For the same compound, the concentration for half-maximal inhibition (IC50) in [5] worked out at 28.4 ± 0.5 µM. In addition, the concentration for half-maximal inhibition (IC50) in data set [6] was greater than 25 µM.
`CC(=O)O[C@@H]1[C@@H](OC(C)=O)[C@H](OC(C)=O)CO[C@H]1n1cc(CSc2nc3ccccc3c(=O)n2C)nn1` [Compound 9, 2-(((1-[2,3,4-tri-O-acetyl-β-D-xylopyranosyl]-1 H-1,2,3-triazol-4-yl)methyl)thio)-3-methylquinazolin-4(3 H)-one] had a melting point of 146 to 148 °C. In addition, the IC50 in [1] was found to be 22.9 ± 2.3 µM. For the same compound, the IC50 in data set [2] came to 12.6 ± 1.3 µM. Moreover, in [3], the IC50 came to 3.2 ± 0.2 µM. In [4], this compound returned a half-maximal inhibitory concentration (IC50) of 23.05 ± 0.08 µM. Besides, the IC50 in data set [5] was determined as 30.6 ± 0.32 µM. Moreover, the half-inhibitory concentration (IC50) in [6] is greater than 25 µM.
Take `Cn1c(SCc2cn([C@@H]3OC[C@@H](O)[C@H](O)[C@H]3O)nn2)nc2ccccc2c1=O` [Compound 13, 2-(((1-[β-D-Xylopyranosyl]-1 H-1,2,3-triazol-4-yl)methyl)thio)-3-methylquinazolin-4(3 H)-one]: the “stage of cell cycle arrest” value in data set [7] is listed as “G1 stage”. For the same compound, the “%G2/M” value in data set [7] (5.40 µM, 24-hour treatment (Table S2 title: 48 h), control 13.24) is 9.43%. The “%S” value in data set [7] (5.40 µM, 24-hour treatment (Table S2 title: 48 h), control 32.81) is listed as 22.46%. In addition, in [7] (5.40 µM, 24-hour treatment (Table S2 title: 48 h), control 53.95), the “%G0-G1” value came out at 68.11%. Besides, the Bcl-2 in [8] (24-hour treatment at IC50 5.40 µM, control 7.48) was 3.15 ng/mL and 3.15 ± 0.22 ng/mL. In addition, the “reduction of Bcl-2 protein levels versus control” value in [8] (24 h, 5.40 µM) was roughly 2.4 times. In addition, the IC50 in [1] came to 18.2 ± 2.2 µM; in data set [2], 7.9 ± 0.3 µM; in data set [3], 5.4 µM; in data set [4], 0.31 ± 0.06 µM; in [5] it was 3.2 ± 0.15 µM; in data set [6] it was 23.5 ± 2.3 µM. Moreover, the “Apoptosis Late” value in [9] (DMSO control 0.14) worked out at 25.36%. Further, the “Apoptosis Early” value in data set [9] (DMSO control 0.55) is on record as 7.42%. This compound also gave a Necrosis in [9] (DMSO control 1.35) of 3.53%. Further, the Bax/Bcl-2 in data set [10] (24-hour treatment at 5.40 µM, control 4.53) is 72.83. Further, the Bax in [10] (24-hour treatment at IC50 5.40 µM, control 33.85) was 229.40 pg/mL and 229.40 ± 1.62 pg/mL. Also, the “improvement in Bax values versus untreated control” value in data set [10] (24 h, 5.40 µM) is recorded as 6.8 fold. The P53 in [11] (24-hour treatment at IC50 5.40 µM, control 139.65) is 885.72 pg/mL and 885.72 ± 1.49 pg/mL. For the same compound, in data set [11] (24 h, 5.40 µM), the “enhancement of p53 protein levels versus control” value was 6.3 times.
Take `COc1ccc(Cc2nnc(COc3ncnc4ccccc34)o2)cc1OC` [IV]: the IC50 in data set [12] was 0.23 µM.
